What follows are compounds tested on HSP70 (assay: HSP70 levels in Neuro 2a cells, ELISA). Conditions: 10 nM, 48 hrs compound then 24 hrs GGTI-298.
Format: cell-based, mouse
Experimental: Mouse neuroblastoma 2a cells were cultured in DMEM with 10% FBS for 24 hrs. […] After 24 hrs cells were harvested and lysates were prepared and analyzed by ELISA for HSP70. Compound ID numbers in table refer to structures in Table 1 and Table 2.

| Compound | HSP70 level, ELISA signal (absence of compounds normalized as 1.00) |
| --- | --- |
| CC(C)=CCC/C(C)=C/CC/C(C)=C/COC(=S)NC1CC1 [Compound 9d, Cyclopropyl 2E, 6E-farnesyl thiocarbamate] | 1.05 |

Same assay, conditions: 100 nM, 48 hrs compound then 24 hrs GGTI-298

| Compound | HSP70 level, ELISA signal (absence of compounds normalized as 1.00) |
| --- | --- |
| CCCCCCNC(=O)OC(C)CC/C=C(\C)CC/C=C(\C)CC/C=C(\C)CCC=C(C)C (racemic) [Compound 23f, 5E, 9E, 13E-Geranylgeranyl-rac-prop-2-yl n-hexyl carbamate] | 0.91 |
| CCOC(=O)C1(C/C=C(\C)CC/C=C(\C)CC/C=C(\C)CCC=C(C)C)CCCCCC1=O (centres unmarked) [Compound 76] | 0.75 |
| COCCC(=O)C(C/C=C(\C)CC/C=C(\C)CC/C=C(\C)CCC=C(C)C)C(=O)OC (centres unmarked) [Compound 81] | 1.12 |
| CCCCCNC(=O)OC(C)CC/C=C(\C)CC/C=C(\C)CC/C=C(\C)CCC=C(C)C (racemic) [Compound 23b, 5E, 9E, 13E-Geranylgeranyl-rac-prop-2-yl n-pentyl carbamate] | 1.13 |
| CCOC(=O)/C=C/C=C(\C)CC/C=C(\C)CC/C=C(\C)CCC=C(C)C [Compound 65] | 0.90 |
| C=CCO/N=C(\C)CC/C=C(\C)CC/C=C(\C)CC/C=C(\C)CCC=C(C)C [Compound 109] | 1.12 |
| CCOC(=O)C(C/C=C(\C)CC/C=C(\C)CC/C=C(\C)CCC=C(C)C)C(=O)C(C)C (centres unmarked) [Compound 77] | 1.03 |
| C=CCCC(=O)CC/C=C(\C)CC/C=C(\C)CC/C=C(\C)CCC=C(C)C [Compound 146] | 1.13 |
| CC(C)=CCC/C(C)=C/CC/C(C)=C/CC/C(C)=C/CCC(C)OC(=O)NC1CCCCCC1 (racemic) [Compound 23e, Cycloheptyl 5E, 9E, 13E-geranylgeranyl-rac-prop-2-yl carbamate] | 0.97 |
| CC(C)=CCC/C(C)=C/CC/C(C)=C/CC/C(C)=C/CNCCCOC(C)C [Compound 17d] | 1.01 |
| COc1ccc(NC(=O)OC/C=C(\C)CC/C=C(\C)CC/C=C(\C)CCC=C(C)C)cc1OC [Compound 7t, 3′,4′-Dimethoxyphenyl 2E, 6E, 10E-geranylgeranyl carbamate] | 1.07 |
| COCC(=O)C(C/C=C(\C)CC/C=C(\C)CC/C=C(\C)CCC=C(C)C)C(=O)OC (centres unmarked) [Compound 80] | 1.02 |
| CCOC(=O)C(C/C=C(\C)CC/C=C(\C)CC/C=C(\C)CCC=C(C)C)C(=O)c1ccoc1 (centres unmarked) [Compound 68] | 1.11 |
| CC(C)=CCC/C(C)=C/CC/C(C)=C/CC/C(C)=C/CC/C(C)=N/OC1CCCCO1 (centres unmarked) [Compound 111] | 1.10 |
| CCOC(=O)C(C/C=C(\C)CC/C=C(\C)CC/C=C(\C)CCC=C(C)C)C(C)=O (centres unmarked) [Compound 87] | 0.95 |
| CC(C)=CCC/C(C)=C/CC/C(C)=C/CC/C(C)=C/COC(=O)NCc1ccco1 [Compound 7aa, 2′-Furanyl methyl 2E, 6E, 10E]-geranylgeranyl carbamate] | 1.05 |
| CC(C)=CCC/C(C)=C/CC/C(C)=C/CC/C(C)=C/COC(=O)N1CCN(C)CC1 [Compound 40a] | 0.99 |
| CC(C)=CCC/C(C)=C/CC/C(C)=C/CCC(=O)C(C)(C)C [Compound 100] | 1.14 |
| CC(C)=CCC/C(C)=C/CC/C(C)=C/CC/C(C)=C/CCC(C)OC(=O)NC1CCCC1 (racemic) [Compound 23c, Cyclopentyl 5E, 9E, 13E-geranylgeranyl-rac-prop-2-yl carbamate] | 0.96 |
| CCCC(=O)C(C/C=C(\C)CC/C=C(\C)CC/C=C(\C)CCC=C(C)C)C(=O)OCC (centres unmarked) [Compound 70] | 1.07 |
| CC(C)=CCC/C(C)=C/CC/C(C)=C/CC/C(C)=C/COC(=O)Nc1cccnc1 [Compound 7z, 3′-Pyridyl 2E, 6E,10E-geranylgeranyl carbamate] | 0.96 |
| CCC(=O)CC/C=C(\C)CC/C=C(\C)CCC=C(C)C [Compound 102] | 1.04 |
| CC(C)=CCC/C(C)=C/CC/C(C)=C/CC/C(C)=C/CCC(=O)C(C)(C)C [Compound 60] | 0.89 |
| CC(=O)CC/C=C(\C)CCC=C1CCCCC1 [Compound 92] | 0.92 |
| CCCC(=O)CC/C=C(\C)CC/C=C(\C)CC/C=C(\C)CCC=C(C)C [Compound 73] | 0.99 |

Same assay, conditions: 10uM, 48 hrs compound then 24 hrs GGTI-298

| Compound | HSP70 level, ELISA signal (absence of compounds normalized as 1.00) |
| --- | --- |
| CC(C)=CCC/C(C)=C/c1nc(-c2ccccc2)no1 [Compound 35c, (E)-5-(2,6-dimethylhepta-1,5-dien-1-yl)-3-phenyl-1,2,4-oxadiazole] | 1.04 |
| CC(C)=CCC/C(C)=C/CC/C(C)=C/COC(=O)NC12CC3CC(CC(C3)C1)C2 [Compound 8e, Adamantyl 2E, 6E-farnesyl carbamate] | 1.09 |
| CCC(C)NC(=S)OC/C=C(\C)CC/C=C(\C)CC/C=C(\C)CCC=C(C)C (centres unmarked) [Compound 10c, sec-Butyryl 2E,6E,10E-geranylgeranyl thiocarbamate] | 1.53 |
| CC(C)=CCC/C(C)=C/CC/C(C)=C/CC/C(C)=C/c1ncc(C)o1 [Compound 16, 5-methyl-2-((1E,5E,9E)-2,6,10,14-tetramethylpentadeca-1,5,9,13-tetraen-1-yl)oxazole] | 0.89 |
| CC(C)=CCC/C(C)=C/CC/C(C)=C/CC/C(C)=C/c1nnc(-c2ccccc2)o1 [Compound 29a, 2-phenyl-5-((1E,5E,9E)-2,6,10,14-tetramethylpentadeca-1,5,9,13-tetraen-1-yl)-1,3,4-oxadiazole] | 1.22 |
| CCOc1ccccc1C(=O)OC/C=C(\C)CC/C=C(\C)CC/C=C(\C)CCC=C(C)C [Compound 2j, 2E, 6E, 10E-Geranylgeranyl-2′ethoxybenzoate] | 0.95 |
| COc1ccc(-c2nnc(/C=C(\C)CC/C=C(\C)CC/C=C(\C)CCC=C(C)C)o2)cc1 [Compound 29c, 2-(4-methoxyphenyl)-5-((1E,5E,9E)-2,6,10,14-tetramethylpentadeca-1,5,9,13-tetraen-1-yl)-1,3,4-oxadiazole] | 1.06 |
| CC(C)=CCC/C(C)=C/CC/C(C)=C/c1cnco1 [Compound 12, 5-((1E,5E)-2,6,10-trimethylundeca-1,5,9-trien-1-yl)oxazole] | 1.01 |
| CC(C)=CCC/C(C)=C/CC/C(C)=C/COC(=O)Nc1ccc(C)cc1 [Compound 8l, p-Tolyl 2E, 6E-farnesyl carbamate] | 1.03 |
| CC(C)=CCC/C(C)=C/CC/C(C)=C/COC(=S)NC1CC1 [Compound 9d, Cyclopropyl 2E, 6E-farnesyl thiocarbamate] | 0.95 |
| CC(C)=CCC/C(C)=C/CC/C(C)=C/CC/C(C)=C/C1=N[C@@H](C(C)C)C(=O)O1 [Compound 37b, (S)-4-isopropyl-2-((1E,5E,9E)-2,6,10,14-tetramethylpentadeca-1,5,9,13-tetraen-1-yl)oxazol-5(4H)-one] | 0.89 |
| CC(C)=CCC/C(C)=C/CC/C(C)=C/COS(=O)(=O)c1ccc(C)cc1 [Compound 6b, 2E, 6E-Farnesyl p-toluenesulfonate] | 1.18 |
| CCCCNC(=S)OC/C=C(\C)CC/C=C(\C)CCC=C(C)C [Compound 9c, n-Butyl 2E, 6E-farnesyl thiocarbamate] | 0.96 |
| CC(C)=CCC/C(C)=C/CC/C(C)=C/CC/C(C)=C/COC(=O)Nc1ccc2c(c1)Cc1ccccc1-2 [Compound 7x, 9′H-Fluoren-2′-yl isocyanate 2E, 6E, 10E-geranylgeranyl carbamate] | 1.00 |
| CC(C)=CCC/C(C)=C/CC/C(C)=C/CC/C(C)=C/C1=N[C@H](C(C)C)CO1 [Compound 27e, (R)-4-isopropyl-2-((1E,5E,9E)-2,6,10,14-tetramethylpentadeca-1,5,9,13-tetraen-1-yl)-4,5-dihydrooxazole] | 1.11 |
| COc1ccc(C(=O)OC/C=C(\C)CC/C=C(\C)CC/C=C(\C)CCC=C(C)C)c(OC)c1 [Compound 2k, 2E, 6E, 10E-Geranylgeranyl-2′,4′-dimethoxybenzoate] | 0.88 |
| CC(C)=CCC/C(C)=C/CC/C(C)=C/CC/C(C)=C/COC(=O)NCc1ccccc1 [Compound 7l, Benzyl 2E, 6E, 10E-geranylgeranyl carbamate] | 1.10 |
| CCC(C)NC(=S)OC/C=C(\C)CC/C=C(\C)CCC=C(C)C (centres unmarked) [Compound 9b, sec-Butyl 2E, 6E-farnesyl thiocarbamate] | 0.99 |
| CCNC(=S)OC/C=C(\C)CC/C=C(\C)CCC=C(C)C [Compound 9a, Ethyl 2E, 6E-farnesyl thiocarbamate] | 0.94 |
| CC(C)=CCC/C(C)=C/CC/C(C)=C/CC/C(C)=C/c1nnc(-c2cccnc2)o1 [Compound 29e, 2-(pyridin-3-yl)-5-((1E,5E,9E)-2,6,10,14-tetramethylpentadeca-1,5,9,13-tetraen-1-yl)-1,3,4-oxadiazole] | 1.10 |
| CC(C)=CCC/C(C)=C/CC/C(C)=C/CC/C(C)=C/c1nnc(-c2ccncc2)o1 [Compound 29f, 2-(pyridin-4-yl)-5-((1E,5E,9E)-2,6,10,14-tetramethylpentadeca-1,5,9,13-tetraen-1-yl)-1,3,4-oxadiazole] | 1.01 |

From patent US20150025077A1 (COYOTE PHARMACEUTICALS, INC., priority 2012, published 2015)
